The record followed here is PubChem BioAssay (NCI).

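48-hour exposure; five concentrations; linearly interpolated endpoints. The concentration for 50% growth inhibition is given as GI50. TGI denotes the concentration required for complete inhibition of growth.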 Bounds are passed on as bounds.

Assay in all cases: DTP human tumour cell line panel, 48 h
Test [1] has as its system MOLT-4 leukemia.
The test system of test [2] is A549 NSCLC.
Test [3] relates to MALME-3M melanoma.
The test system of test [4] is NCI-H460 lung.
In test [5] the test system is SF-295 CNS.
The test system of test [6] is SN12C renal.
In test [7] the test system is SW-620 colon.
The subject of test [8] is PC-3 prostate.
The test system of test [9] is NCI/ADR-RES ovarian.

Consider `CC(C)CN1CC(C)C(=O)NC1=O` (configuration not stated), for which the TGI in test [1], in test [2], in test [3], in test [4], in test [5] and in test [6] was above 100 µM each time. The TGI in test [7] was above 100 µM.

Regarding `CN(C)c1ccc(Nc2c3ccccc3nc3cc(NC(=O)CCN4CCCC4)ccc23)cc1`, the GI50 in [1] is 42 nM; in [2], 68.8 nM; in test [3], 1120 nM; in test [4], 42.3 nM; in test [5], 362 nM; in test [6], 197 nM. Further, the GI50 in test [8] is 577 nM; in test [7] it was 252 nM; in test [9], 2910 nM. Besides, the TGI was determined as 1.07 µM in test [1]; 1.75 µM in test [2]; 2.41 µM in test [3]; 0.683 µM in test [4]; 1.51 µM in test [5]; 1.25 µM in [6]. Also, the figures for the TGI in [8], in [7] and in test [9] were 2170 nM, 1.68 µM and 12.9 µM, respectively.

Turning to `C=C1CCC2C(C)(CO)C(O)CCC2(C)C1C/C=C1/CCOC1=O` (configuration not stated), the TGI in test [1], in [2], in [3], in test [4], in [5] and in test [6] was above 100 µM in each case. In test [7], this molecule came in with a TGI above 100 µM.

In the case of `CCOC(OCC)C(CC)[Se]c1ccccc1` (configuration not stated), the TGI in [1], in test [2], in test [3], in test [4], in [5] and in test [6] was above 100 µM throughout.

For `COc1ccc(N=Nc2c(-c3ccccc3)nn(C(=O)CC(=O)Nc3ccccc3Cl)c2-c2ccccc2)cc1`, the TGI is 8.85 µM in test [1]; above 100 µM in test [2]; above 100 µM in [3]; above 100 µM in [4]; above 100 µM in test [5]; above 100 µM in test [6]. In addition, the TGI in test [7] was above 100 µM.

Consider `Cc1ccc(NC(=O)/C(=N/NC(=O)C[N+](C)(C)C)c2nc3ccccc3[nH]c2=O)cc1`, for which the TGI in test [1], in test [2], in [3], in [4], in [5] and in [6] was above 100 µM each time. The TGI in [7] turned out to be 33.8 µM.

Consider `O=C(/C=C/c1ccccc1O)c1cccc2ccccc12`, for which the TGI in [1] is above 83.7 µM; in [2], above 100 µM; in [3], above 100 µM; in test [4], above 100 µM; in [5], above 100 µM; in test [6], above 100 µM. The same molecule had a TGI in test [7] above 46.9 µM.

For `CN(C)C(=S)/N=c1\ss/c(=N\C(=S)N(C)C)n1Cc1ccco1`, the TGI in [1], in test [2], in test [3], in [4], in test [6] and in [7] was above 100 µM throughout.

Consider `CC(=O)OCCOCNC(=S)N/N=C(\C)c1cccs1`, for which the TGI in [1], in test [2], in test [3], in test [4], in [5] and in test [6] was above 100 µM throughout. This molecule had a TGI in [7] above 100 µM.

As for `CN(C(=O)C12C3C4C1C1C2C3C41C(O)C(C)(C)C)C(C)(C)C` (configuration not stated), the TGI in [1], in test [2], in test [3], in [4], in test [5] and in test [6] was above 100 µM in each case. The molecule further displayed a TGI in test [7] above 100 µM.

Take `Cc1cccc(C(C)C)c1NC(=O)CCl`: the TGI in test [1], in test [2], in test [3], in test [4], in [5] and in [6] was above 100 µM in each case. In [7], this molecule registered a TGI above 100 µM.

Regarding `Cn1nc2ccc3nccc(NCCNCCO)c3c2n1`, the TGI in test [1] was 69 µM; in test [2] it was above 100 µM; in [3] it was above 100 µM; in test [4], 45.2 µM; in test [5], above 100 µM; in test [6] it was above 100 µM. In test [7], this molecule showed a TGI above 100 µM.

Regarding `OCC(O)COc1c(Cl)cc(Cl)cc1Cl` (configuration not stated), the TGI was above 31.6 µM in [1]; above 100 µM in test [2]; above 100 µM in test [3]; above 100 µM in test [4]; above 100 µM in test [5]; above 100 µM in test [6]. Moreover, the TGI in [7] is above 51.9 µM.

Take `CCOc1ccc(NCC2CC/C(=C\c3ccc(Cl)cc3)C2=O)cc1` (configuration not stated): the TGI was 69.8 µM in test [1]; above 100 µM in [2]; above 87.5 µM in test [3]; above 100 µM in test [4]; above 100 µM in [5]; above 60.3 µM in test [6]. The same molecule yielded a TGI in [7] of 39.6 µM.

As to `O=C1CCCC(O)=C1SC1=C(O)CCCC1=O`, the total growth inhibition concentration (TGI) in test [1], in test [2], in test [3], in test [5], in [6] and in test [7] was above 100 µM throughout.

Regarding `CCOC(=O)C(=O)Nc1ccccc1OCC`, the TGI in [1], in test [2], in test [3], in test [4], in test [5] and in [6] was above 100 µM throughout. Further, in [7], the total growth inhibition concentration (TGI) was above 100 µM.

For the molecule `c1ccc2c(c1)Sc1ccccc1N2C1CN2CCC1CC2` (configuration not stated), the total growth inhibition concentration (TGI) in [1] amounted to 28.1 µM; in test [2] it was 32.1 µM; in test [3] it was 30.5 µM; in [4] it was 33.4 µM; in [5], 32.2 µM; in [6], 29.1 µM. In test [7], this molecule gave a TGI of 33.2 µM.

A word on the TGI: it is the concentration at which net growth stops. As a reminder, the GI50 is the concentration at which growth is held to half of that of the control.
